Measured values published in patent US9833497B2, “Human originated EGF domain proteins and use of the same” (CHENGDU SOURCEBIO LIMITED-LIABILITY COMPANY, priority 2013, dated 2017).

What was measured:
Type in all cases: cell-based
E. coli DH5α = assay: Antibacterial activity: MIC and growth curve against E. coli DH5α in 96-well plate; conditions: minimal inhibitory concentration against E. coli DH5α; 96-well plate, 5×10^5 CFU/mL, 37° C., judged after 8 h
Summary of the method: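 Log-phase bacteria (OD600 ~0.5) resuspended in LB at 5×10^5 CFU/mL, exposed to recombinant protein at 50, 25, 12.5 μg/mL final in triplicate, 37 °C shaking at 175 rpm. OD600 read every 30 min; MIC is lowest concentration showing no growth.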

E. coli BL21 = assay: MIC against Gram-negative bacteria: E. coli BL21; conditions: 5×10^5 CFU/mL
Summary of the method: (§1)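 First, colonies from LB agar were grown in LB at 37° C, 185 rpm, to McFarland turbidity 0.5, then centrifuged and resuspended in fresh LB. Next, wells received 5×10^5 CFU/mL bacteria plus two-fold serially diluted EGF domain protein (triplicate). Finally, plates were shaken at 37° C and the no-growth concentration taken as MIC.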

Pseudomonas aeruginosa = assay: MIC against Gram-negative bacteria: Pseudomonas aeruginosa; conditions: 5×10^5 CFU/mL
Summary of the method: as §1

Klebsiella pneumonia = assay: MIC against Gram-negative bacteria: Klebsiella pneumonia; conditions: 5×10^5 CFU/mL
Summary of the method: as §1

Enterobacter cloacae = assay: MIC against Gram-negative bacteria: Enterobacter cloacae; conditions: 5×10^5 CFU/mL
Summary of the method: as §1

Aeromonas hydrophila = assay: MIC against Gram-negative bacteria: Aeromonas hydrophila; conditions: 5×10^5 CFU/mL
Summary of the method: as §1

Citrobacter diversus = assay: MIC against Gram-negative bacteria: Citrobacter diversus; conditions: 5×10^5 CFU/mL
Summary of the method: as §1

Moraxella catarrhalis = assay: MIC against Gram-negative bacteria: Moraxella catarrhalis; conditions: 5×10^5 CFU/mL
Summary of the method: as §1

Proteus mirabilis = assay: MIC against Gram-negative bacteria: Proteus mirabilis; conditions: 5×10^5 CFU/mL
Summary of the method: as §1

Proteus vulgaris = assay: MIC against Gram-negative bacteria: Proteus vulgaris; conditions: 5×10^5 CFU/mL
Summary of the method: as §1

Serratia marcescens = assay: MIC against Gram-negative bacteria: Serratia marcescens; conditions: 5×10^5 CFU/mL
Summary of the method: as §1

[1] = E. coli BL21, 10 h cultivation at 37° C.
[2] = P. aeruginosa, 10 h cultivation at 37° C.
[3] = K. pneumonia, 10 h cultivation at 37° C.
[4] = E. cloacae, 10 h cultivation at 37° C.
[5] = A. hydrophila, 10 h cultivation at 37° C.
[6] = C. diversus, 10 h cultivation at 37° C.
[7] = M. catarrhalis, 10 h cultivation at 37° C.
[8] = P. mirabilis, 10 h cultivation at 37° C.
[9] = P. vulgaris, 10 h cultivation at 37° C.
[10] = S. marcescens, 10 h cultivation at 37° C.
[11] = E. coli BL21, 96-well plate, 37° C., 10 h
[12] = Pseudomonas aeruginosa, 96-well plate, 37° C., 10 h
[13] = Klebsiella pneumonia, 96-well plate, 37° C., 10 h
[14] = Enterobacter cloacae, 96-well plate, 37° C., 10 h
[15] = Aeromonas hydrophila, 96-well plate, 37° C., 10 h
[16] = Citrobacter diversus, 96-well plate, 37° C., 10 h
[17] = Moraxella catarrhalis, 96-well plate, 37° C., 10 h
[18] = Proteus mirabilis, 96-well plate, 37° C., 10 h
[19] = Proteus vulgaris, 96-well plate, 37° C., 10 h
[20] = Serratia marcescens, 96-well plate, 37° C., 10 h
[21] = 10 h cultivation at 37° C., two-fold serial dilution

Q: For “PRT205 (SAHVCSQQCSGHGVCDSRNKCHCSPGYKPPNCQ; listed as Homo sapiens)”, which MIC (E. coli DH5α) is on record?
A: 12.5 µg/mL

Q: And the “MIC (μg/mL) E. coli BL21” value (E. coli BL21; [1])?
A: 12.5 µg/mL

Q: And the “MIC (μg/mL) P. aeruginosa” value (Pseudomonas aeruginosa; [2])?
A: 12.5 µg/mL

Q: And the “MIC (μg/mL) K. pneumonia” value (Klebsiella pneumonia; [3])?
A: 25 µg/mL

Q: And the “MIC (μg/mL) E. cloacae” value (Enterobacter cloacae; [4])?
A: 12.5 µg/mL

Q: And the “MIC (μg/mL) A. hydrophila” value (Aeromonas hydrophila; [5])?
A: 25 µg/mL

Q: And the “MIC (μg/mL) C. diversus” value (Citrobacter diversus; [6])?
A: 12.5 µg/mL

Q: What about the “MIC (μg/mL) M. catarrhalis” value (Moraxella catarrhalis; [7]) of the same substance?
A: 25 µg/mL

Q: And the “MIC (μg/mL) P. mirabilis” value (Proteus mirabilis; [8])?
A: 12.5 µg/mL

Q: What about the “MIC (μg/mL) P. vulgaris” value (Proteus vulgaris; [9]) of the same substance?
A: 25 µg/mL

Q: What about the “MIC (μg/mL) S. marcescens” value (Serratia marcescens; [10]) of the same substance?
A: 12.5 µg/mL

Q: “PRT30 (PCDCYPVGSTSRSCAPHSGQCPCRPGALGRQCNSCDSPF; listed as Homo sapiens)” was tested. Which MIC (E. coli DH5α) did it give?
A: 25 µg/mL

Q: What about the “MIC (μg/mL) E. coli BL21” value (E. coli BL21; [11]) of the same substance?
A: 50 µg/mL

Q: What about the “MIC (μg/mL) P. aeruginosa” value (Pseudomonas aeruginosa; [12]) of the same substance?
A: 12.5 µg/mL

Q: What about the “MIC (μg/mL) K. pneumonia” value (Klebsiella pneumonia; [13]) of the same substance?
A: 25 µg/mL

Q: What about the “MIC (μg/mL) E. cloacae” value (Enterobacter cloacae; [14]) of the same substance?
A: 50 µg/mL

Q: And the “MIC (μg/mL) A. hydrophila” value (Aeromonas hydrophila; [15])?
A: 12.5 µg/mL

Q: And the “MIC (μg/mL) C. diversus” value (Citrobacter diversus; [16])?
A: 25 µg/mL

Q: And the “MIC (μg/mL) M. catarrhalis” value (Moraxella catarrhalis; [17])?
A: 50 µg/mL

Q: And the “MIC (μg/mL) P. mirabilis” value (Proteus mirabilis; [18])?
A: 12.5 µg/mL

Q: And the “MIC (μg/mL) P. vulgaris” value (Proteus vulgaris; [19])?
A: 25 µg/mL

Q: What about the “MIC (μg/mL) S. marcescens” value (Serratia marcescens; [20]) of the same substance?
A: 12.5 µg/mL

Q: How did the MIC (E. coli DH5α) turn out when “PRT1239 (TIPICEGPDACQKDEVCVKPGLCRCKPGFFGAHCS; listed as Homo sapiens)” was run?
A: 25 µg/mL

Q: And the “MIC against E. coli BL21” value (E. coli BL21; [11])?
A: 12.5 µg/mL

Q: And the “MIC against P. aeruginosa” value (Pseudomonas aeruginosa; [12])?
A: 50 µg/mL

Q: What about the “MIC against K. pneumonia” value (Klebsiella pneumonia; [13]) of the same substance?
A: 12.5 µg/mL

Q: And the “MIC against E. cloacae” value (Enterobacter cloacae; [14])?
A: 50 µg/mL

Q: And the “MIC against A. hydrophila” value (Aeromonas hydrophila; [15])?
A: 12.5 µg/mL

Q: And the “MIC against C. diversus” value (Citrobacter diversus; [16])?
A: 50 µg/mL

Q: And the “MIC against M. catarrhalis” value (Moraxella catarrhalis; [17])?
A: 12.5 µg/mL

Q: What about the “MIC against P. mirabilis” value (Proteus mirabilis; [18]) of the same substance?
A: 25 µg/mL

Q: And the “MIC against P. vulgaris” value (Proteus vulgaris; [19])?
A: 50 µg/mL

Q: What about the “MIC against S. marcescens” value (Serratia marcescens; [20]) of the same substance?
A: 25 µg/mL

Q: How did the MIC (E. coli DH5α) turn out when “PRT553 (CQCPGGRCDPHTGRCNCPPGLSGERCDTCSQQHQVPVPGGPVGHSIHCEV; listed as Homo sapiens)” was run?
A: 25 µg/mL

Q: And the “MIC against E. coli BL21” value (E. coli BL21; 96-well plate, 37° C., 10 h)?
A: 50 µg/mL

Q: What about the “MIC against P. aeruginosa” value (Pseudomonas aeruginosa; 96-well plate, 37° C., 10 h) of the same substance?
A: 25 µg/mL

Q: And the “MIC against K. pneumonia” value (Klebsiella pneumonia; 96-well plate, 37° C., 10 h)?
A: 12.5 µg/mL

Q: And the “MIC against E. cloacae” value (Enterobacter cloacae; 96-well plate, 37° C., 10 h)?
A: 25 µg/mL

Q: What about the “MIC against A. hydrophila” value (Aeromonas hydrophila; 96-well plate, 37° C., 10 h) of the same substance?
A: 50 µg/mL

Q: And the “MIC against C. diversus” value (Citrobacter diversus; 96-well plate, 37° C., 10 h)?
A: 25 µg/mL

Q: And the “MIC against M. catarrhalis” value (Moraxella catarrhalis; 96-well plate, 37° C., 10 h)?
A: 12.5 µg/mL

Q: What about the “MIC against P. mirabilis” value (Proteus mirabilis; 96-well plate, 37° C., 10 h) of the same substance?
A: 25 µg/mL

Q: And the “MIC against P. vulgaris” value (Proteus vulgaris; 96-well plate, 37° C., 10 h)?
A: 50 µg/mL

Q: What about the “MIC against S. marcescens” value (Serratia marcescens; 96-well plate, 37° C., 10 h) of the same substance?
A: 25 µg/mL

Q: How did the MIC (E. coli DH5α) turn out when “PRT1083 (GTNVCAVANGGCQQLCLYRGRGQRACACAHGMLAEDGASCR; listed as Homo sapiens)” was run?
A: 50 µg/mL

Q: What about the “MIC E. coli BL21” value (E. coli BL21; [21]) of the same substance?
A: 12.5 µg/mL

Q: What about the “MIC P. aeruginosa” value (Pseudomonas aeruginosa; [21]) of the same substance?
A: 50 µg/mL

Q: And the “MIC K. pneumonia” value (Klebsiella pneumonia; [21])?
A: 50 µg/mL

Q: And the “MIC E. cloacae” value (Enterobacter cloacae; [21])?
A: 50 µg/mL

Q: And the “MIC A. hydrophila” value (Aeromonas hydrophila; [21])?
A: 25 µg/mL

Q: And the “MIC C. diversus” value (Citrobacter diversus; [21])?
A: 12.5 µg/mL

Q: And the “MIC M. catarrhalis” value (Moraxella catarrhalis; [21])?
A: 50 µg/mL

Q: What about the “MIC P. mirabilis” value (Proteus mirabilis; [21]) of the same substance?
A: 25 µg/mL

Q: And the “MIC P. vulgaris” value (Proteus vulgaris; [21])?
A: 50 µg/mL

Q: And the “MIC S. marcescens” value (Serratia marcescens; [21])?
A: 25 µg/mL

Q: “PRT398 (DDNECHAQPDLCVNGRCVNTAGSFRCDCDEGFQPSPTLTECH; listed as Homo sapiens)” was tested. Which MIC (E. coli DH5α) did it give?
A: 50 µg/mL

Q: And the MIC (E. coli BL21; [1])?
A: 12.5 µg/mL

Q: And the MIC (Pseudomonas aeruginosa; [2])?
A: 50 µg/mL

Q: What about the MIC (Klebsiella pneumonia; [3]) of the same substance?
A: 12.5 µg/mL

Q: And the MIC (Enterobacter cloacae; [4])?
A: 50 µg/mL

Q: And the MIC (Aeromonas hydrophila; [5])?
A: 12.5 µg/mL

Q: And the MIC (Citrobacter diversus; [6])?
A: 50 µg/mL

Q: What about the MIC (Moraxella catarrhalis; [7]) of the same substance?
A: 12.5 µg/mL

Q: And the MIC (Proteus mirabilis; [8])?
A: 12.5 µg/mL

Q: And the MIC (Proteus vulgaris; [9])?
A: 12.5 µg/mL

Q: What about the MIC (Serratia marcescens; [10]) of the same substance?
A: 100 µg/mL
